In brackets after ≈: the same amount, converted by molar mass.
Legend:
Format in all cases: functional
[1] = test system: Staphylococcus aureus; assay: Antimicrobial activity against Staphylococcus aureus 2865 by agar dilution method
[2] = test system: Streptococcus pyogenes; assay: Antimicrobial activity against Streptococcus pyogenes 3124 by agar dilution method
[3] = test system: Enterococcus; assay: Antimicrobial activity against Enterococcus 2862 by agar dilution method
[4] = test system: Klebsiella; assay: Antimicrobial activity against Klebsiella 2882 by agar dilution method
[5] = test system: Escherichia coli; assay: Antimicrobial activity against Escherichia coli 2884 by agar dilution method
[6] = test system: Enterobacter; assay: Antimicrobial activity against Enterobacter 2902 by agar dilution method
[7] = test system: Serratia; assay: Antimicrobial activity against Serratia 2852 by agar dilution method
[8] = test system: Enterobacteriaceae; assay: Antimicrobial activity against Aerobacter 2826 by agar dilution method
[9] = test system: Enterobacteriaceae; assay: Antimicrobial activity against Aerobacter 2828 by agar dilution method
[10] = test system: Pseudomonas; assay: Antimicrobial activity against Pseudomonas by agar dilution method
[11] = test system: Providencia; assay: Antimicrobial activity against Providencia 2851 by agar dilution method
[12] = test system: Proteus vulgaris; assay: Antimicrobial activity against Proteus vulgaris 2829 by agar dilution method
[13] = test system: Morganella morganii; assay: Antimicrobial activity against Proteus morganii 2834 by agar dilution method
[14] = test system: Proteus mirabilis; assay: Antimicrobial activity against Proteus mirabilis 2830 by agar dilution method

| Compound | MIC [1] [µg/mL] | MIC [2] [µg/mL] | MIC [3] [µg/mL] | MIC [4] [µg/mL] | MIC [5] [µg/mL] | MIC [6] [µg/mL] | MIC [7] [µg/mL] | MIC [8] [µg/mL] | MIC [9] [µg/mL] | MIC [10] [µg/mL] | MIC [11] [µg/mL] | MIC [12] [µg/mL] | MIC [13] [µg/mL] | MIC [14] [µg/mL] |
| --- | --- | --- | --- | --- | --- | --- | --- | --- | --- | --- | --- | --- | --- | --- |
| CO[C@@]1(NC(=O)Cc2cccs2)C(=O)N2C(C(=O)O)=C(COC(N)=O)CS[C@@H]21 [CEFOXITIN] | 1.56 (≈ 3.65 µM) | 0.78 (≈ 1.82 µM) | > 100 | 3.12 (≈ 7.3 µM) | 1.56 (≈ 3.65 µM) | > 100 | 25 (≈ 58.5 µM) | 0.78 (≈ 1.82 µM) | > 100 | > 100 | 1.56 (≈ 3.65 µM) | < 0.39 | 6.25 (≈ 14.6 µM) | 1.56 (≈ 3.65 µM) |
| Cn1nnnc1SCC1=C(C(=O)O)N2C(=O)[C@@H](NC(=O)C(O)c3ccccc3)[C@H]2CC1 (mixture of isomers) | 1.56 | 3.12 | > 100 | 1.56 | 1.56 | > 100 | > 100 | 1.56 | > 100 | > 100 | 6.25 | 6.25 | 6.25 | 25 |
| CO[C@@]1(NC(=O)Cc2cccs2)C(=O)N2C(C(=O)O)=C(COC(N)=O)CC[C@@H]21 (racemic) | 6.25 (≈ 15.3 µM) | 6.25 (≈ 15.3 µM) | > 100 | 6.25 (≈ 15.3 µM) | 12.5 (≈ 30.5 µM) | > 100 | 50 (≈ 122 µM) | 12.5 (≈ 30.5 µM) | > 100 | > 100 | 6.25 (≈ 15.3 µM) | 6.25 (≈ 15.3 µM) | 6.25 (≈ 15.3 µM) | 12.5 (≈ 30.5 µM) |

Now those with a lower MIC [1], led by results:

| MIC [1] [µg/mL] | MIC [2] [µg/mL] | MIC [3] [µg/mL] | MIC [4] [µg/mL] | MIC [5] [µg/mL] | MIC [6] [µg/mL] | MIC [7] [µg/mL] | MIC [8] [µg/mL] | MIC [9] [µg/mL] | MIC [10] [µg/mL] | MIC [11] [µg/mL] | MIC [12] [µg/mL] | MIC [13] [µg/mL] | MIC [14] [µg/mL] | Compound |
| --- | --- | --- | --- | --- | --- | --- | --- | --- | --- | --- | --- | --- | --- | --- |
| < 0.39 | < 0.39 | 25 (≈ 56 µM) | 0.78 (≈ 1.75 µM) | < 0.39 | 12.5 (≈ 28 µM) | > 100 | < 0.39 | 25 (≈ 56 µM) | > 100 | 2.56 (≈ 5.73 µM) | 1.28 (≈ 2.87 µM) | 1.28 (≈ 2.87 µM) | 100 (≈ 224 µM) | Cn1nnnc1SCC1=C(C(=O)O)N2C(=O)[C@@H](NC(=O)[C@H](O)c3ccccc3)[C@H]2OC1 (racemic) |
| < 0.39 | < 0.39 | 50 (≈ 108 µM) | 1.56 (≈ 3.37 µM) | < 0.39 | 50 (≈ 108 µM) | > 100 | < 0.39 | 50 (≈ 108 µM) | > 100 | 3.12 (≈ 6.75 µM) | 1.56 (≈ 3.37 µM) | 6.25 (≈ 13.5 µM) | 6.25 (≈ 13.5 µM) | Cn1nnnc1SCC1=C(C(=O)O)N2C(=O)[C@@H](NC(=O)[C@H](O)c3ccccc3)[C@H]2SC1 [CEFAMANDOLE] |
